From patent US6737383B1, “Herbicidal oxadiazolidines” (priority 1999, dated 2004)

How the values were obtained:
Spanishneedles = experiment: Test D Spanishneedles; format: in vivo, Bidens bipinnata; conditions: Preemergence, 0 to 100 scale
Procedure, shortened: (§1)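 Seeds were sown in greenhouse pots, one species per pot or compartment. Compounds were in a non-phytotoxic solvent mixture with surfactant; preemergence applications went on the sandy loam surface within one day of planting. Injury was rated visually after 14 to 21 days, 0 (none) to 100 (complete control).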

winter wheat [1] = experiment: Test E winter wheat; format: in vivo, Triticum aestivum; conditions: Preemergence
guineagrass = experiment: Test D guineagrass; format: in vivo, Panicum maximum; conditions: Preemergence, 0 to 100 scale
Procedure, shortened: as §1

winter barley = experiment: Test E winter barley; format: in vivo, Hordeum vulgare; conditions: Preemergence
wild oat [2] = experiment: Test E wild oat; format: in vivo, Avena fatua; conditions: Preemergence
tall mallow = experiment: Test D tall mallow; format: in vivo, Malva sylvestris; conditions: Preemergence, 0 to 100 scale
Procedure, shortened: as §1

winter wheat [3] = experiment: Test E winter wheat; format: in vivo, Triticum aestivum; conditions: Postemergence, 0 to 100 scale
Procedure, shortened: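 For postemergence, sowings are timed so plants reach the 1- to 4-leaf stage at spraying. Test compound is applied in a surfactant-containing solvent mixture that is non-phytotoxic. Response is judged by eye against untreated controls after approximately 21 to 28 days.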

pigweed = experiment: Test B pre/postemergence pigweed; format: in vivo, Amaranthus retroflexus
Procedure, shortened: (§2)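 Herbicidal effect was estimated by eye on a ten-point control scale after plants spent twelve to sixteen days in a greenhouse following soil or foliar treatment. Foliar sprays targeted plants at one to four leaves; all doses were formulated in a non-phytotoxic solvent with surfactant.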

green foxtail [4] = experiment: Test E green foxtail; format: in vivo, Setaria viridis; conditions: Preemergence
wild oat [5] = experiment: Test B pre/postemergence wild oat; format: in vivo, Avena fatua
Procedure, shortened: as §2

Alexandergrass = experiment: Test D Alexandergrass; format: in vivo, Brachiaria plantaginea; conditions: Preemergence, 0 to 100 scale
Procedure, shortened: as §1

Green foxtail [6] = experiment: Test D green foxtail; format: in vivo
Procedure, shortened: as §1

morningglory = experiment: Test B pre/postemergence morningglory; format: in vivo, Ipomoea hederacea
Procedure, shortened: as §2

blackgrass = experiment: Test E blackgrass; format: in vivo, Alopecurus myosuroides; conditions: Preemergence
Italian ryegrass = experiment: Test E Italian ryegrass; format: in vivo, Lolium multiflorum; conditions: Preemergence
[7] = Rate 16 g/ha, 0 no injury, 100 complete control
[8] = Rate 32 g/ha, 0 no injury, 100 complete control
[9] = Rate 64 g/ha, 0 no injury, 100 complete control
[10] = Rate 125 g/ha, 0 no injury, 100 complete control
[11] = Rate 62 g/ha, 0 to 100 scale, 0 no effect, 100 complete control
[12] = Rate 125 g/ha, 0 to 100 scale (0 no effect, 100 complete control)
[13] = Postemergence, Rate 125 g/ha, scale of 0 to 10 where 0 is no effect and 10 is complete control
[14] = Preemergence, Rate 62 g/ha, scale of 0 to 10 where 0 is no effect and 10 is complete control
[15] = Preemergence, Rate 125 g/ha, 0 is no effect, 10 is complete control
[16] = Preemergence, Rate 250 g/ha, scale 0 to 10, 0 is no effect, 10 is complete control
[17] = Preemergence, Rate 500 g/ha, scale 0 to 10 (0 no effect, 10 complete control)
[18] = Rate 62 g/ha, Postemergence, scale of 0 to 10 where 0 is no effect and 10 is complete control
[19] = Rate 250 g/ha, Postemergence, scale 0 to 10, 0 is no effect, 10 is complete control
[20] = Rate 500 g/ha, Postemergence, scale 0 to 10
[21] = Rate 64 g/ha, Preemergence; 0 to 100 scale, 0 no injury, 100 complete control
[22] = Rate 125 g/ha, Preemergence; 0 to 100 scale, 0 no injury, 100 complete control

CC(C)N(C(=O)n1oc(=O)n(N(C)C)c1=O)c1ccc(F)cc1 [Compound 170]
40: Plant response rating, Spanishneedles (Spanishneedles; Rate 250 g/ha) | Plant response rating, Tall Mallow (tall mallow; Rate 250 g/ha)
30: Plant response rating, Tall Mallow (tall mallow; [7]) | Plant response rating, Tall Mallow (tall mallow; [8]) | Tall Mallow plant response rating (tall mallow; [9]) | Tall Mallow plant response rating (tall mallow; [10]) | Plant response rating, Alexandergrass (Alexandergrass; [9])
7: Wild oats plant response rating (wild oat [5]; [14])
20: Plant response rating, Alexandergrass (Alexandergrass; [7]) | Plant response rating, Alexandergrass (Alexandergrass; [8])
85: Plant response rating, Spanishneedles (Spanishneedles; Rate 500 g/ha) | Plant response rating, Guineagrass (guineagrass; [8]) | Plant response rating, Alexandergrass (Alexandergrass; [10]) | Blackgrass plant response rating (0 to 100 scale) (blackgrass; Rate 250 g/ha)
80: Plant response rating, Wheat (winter) (winter wheat [3]; Rate 62 g/ha)
98: Plant response rating, Guineagrass (guineagrass; [9]) | Plant response rating, Alexandergrass (Alexandergrass; Rate 250 g/ha)
60: Plant response rating, Barley (winter) (winter barley; [11]) | Plant response rating, Barley (winter) (winter barley; [12]) | Plant response rating, Blackgrass (blackgrass; [11]) | Plant response rating, Blackgrass (blackgrass; [12]) | Plant response rating, I. Ryegrass (Italian ryegrass; [11])
65: Plant response rating, Wild oat (wild oat [2]; [11]) | Plant response rating, Green foxtail (Green foxtail [6]; Preemergence; Rate 16 g/ha; 0 to 100 scale, 0 no injury, 100 complete control) | Plant response rating, Green foxtail (Green foxtail [6]; Rate 16 g/ha; Preemergence; 0 to 100 scale, 0 no injury, 100 complete control)
75: Plant response rating, Wheat (winter) (winter wheat [3]; Rate 125 g/ha) | Plant response rating, Green foxtail (Green foxtail [6]; Preemergence; Rate 32 g/ha; 0 to 100 scale, 0 no injury, 100 complete control)
45: Plant response rating, Tall Mallow (tall mallow; Rate 500 g/ha)
9: Wild oats plant response rating (0 to 10 scale) (wild oat [5]; [15])
1: Morningglory plant response rating (morningglory; [13]) | Plant response rating, Morningglory (morningglory; [19])
3: Plant response rating, Wild oats (wild oat [5]; [19]) | Morningglory plant response rating (0 to 10 scale) (morningglory; [15])
2: Morningglory plant response rating (morningglory; [20])
70: Plant response rating, Wheat (winter) (winter wheat [1]; [11]) | Plant response rating, Wheat (winter) (winter wheat [1]; [12]) | Wheat (winter) plant response rating (0 to 100 scale) (winter wheat [1]; Rate 250 g/ha) | Barley (winter) plant response rating (0 to 100 scale) (winter barley; Rate 250 g/ha) | Plant response rating, Wild oat (wild oat [2]; [12]) | Wild oat plant response rating (0 to 100 scale) (wild oat [2]; Rate 250 g/ha) | Plant response rating, I. Ryegrass (Italian ryegrass; [12]) | I. Ryegrass plant response rating (0 to 100 scale) (Italian ryegrass; Rate 250 g/ha)
0: Plant response rating, Spanishneedles (Spanishneedles; [7]) | Plant response rating, Spanishneedles (Spanishneedles; [8]) | Spanishneedles plant response rating (Spanishneedles; [9]) | Spanishneedles plant response rating (Spanishneedles; [10]) | Plant response rating, Guineagrass (guineagrass; [7]) | Redroot pigweed plant response rating (pigweed; [13]) | Redroot pigweed plant response rating (pigweed; [18]) | Morningglory plant response rating (morningglory; [14]) | Morningglory plant response rating (morningglory; [18])
10: Redroot pigweed plant response rating (pigweed; [14]) | Redroot pigweed plant response rating (0 to 10 scale) (pigweed; [15]) | Redroot pigweed plant response rating (pigweed; [16]) | Redroot pigweed plant response rating (pigweed; [17]) | Wild oats plant response rating (wild oat [5]; [16]) | Wild oats plant response rating (wild oat [5]; [17]) | Morningglory plant response rating (morningglory; [17])
6: Plant response rating, Redroot pigweed (pigweed; [19]) | Redroot pigweed plant response rating (pigweed; [20]) | Wild oats plant response rating (wild oat [5]; [20]) | Morningglory plant response rating (morningglory; [16])
100: Plant response rating, Guineagrass (guineagrass; [10]) | Plant response rating, Guineagrass (guineagrass; Rate 250 g/ha) | Plant response rating, Guineagrass (guineagrass; Rate 500 g/ha) | Plant response rating, Green foxtail (green foxtail [4]; [11]) | Plant response rating, Green foxtail (green foxtail [4]; [12]) | Green foxtail plant response rating (0 to 100 scale) (green foxtail [4]; Rate 250 g/ha) | Plant response rating, Alexandergrass (Alexandergrass; Rate 500 g/ha) | Plant response rating, Green foxtail (Green foxtail [6]; Rate 32 g/ha; Preemergence; 0 to 100 scale, 0 no injury, 100 complete control) | Green foxtail plant response rating (Green foxtail [6]; [21]) | Plant response rating, Green foxtail (Green foxtail [6]; [21]) | Green foxtail plant response rating (Green foxtail [6]; [22]) | Plant response rating, Green foxtail (Green foxtail [6]; [22]) | Plant response rating, Green foxtail (Green foxtail [6]; Rate 250 g/ha; Preemergence; 0 to 100 scale) | Plant response rating, Green foxtail (Green foxtail [6]; Rate 500 g/ha, Preemergence; 0 to 100 scale)
